ChEMBL document CHEMBL1122041, “Molecular structures of 2,4-diaminopyrimidine antifolates with antineoplastic activity” (J Med Chem, 1982)

Columns and labels:
[1] = system: TA3; assay: Evaluated for the concentration needed for 50% growth inhibition of mouse mammary adenocarcinoma cells (TA3) in culture.; format: functional; conditions: TA3, read-out: ID50
[2] = system: TA3; assay: Evaluated for the concentration needed for 50% growth inhibition of mouse mammary adenocarcinoma cells (TA3) in culture; format: functional; conditions: TA3, read-out: ID50
[3] = target: T1, Dihydrofolate reductase (Homo sapiens, UniProt P00374); assay: Noncompetitive inhibition of mammalian Dihydrofolate reductase
T1 sequence (P00374 whole entry): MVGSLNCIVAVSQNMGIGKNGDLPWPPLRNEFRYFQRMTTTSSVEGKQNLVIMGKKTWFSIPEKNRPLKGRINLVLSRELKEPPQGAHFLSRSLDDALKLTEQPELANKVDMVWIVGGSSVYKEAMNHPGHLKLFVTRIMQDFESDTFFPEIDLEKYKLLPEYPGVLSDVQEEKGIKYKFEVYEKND

[4] = target: T1, Dihydrofolate reductase; assay: Competitive inhibition of mammalian dihydrofolate reductase

In the case of `Cc1nc(N)nc(N)c1C12CC3CC(CC(C3)C1)C2`, the IC50 [1] is reported as 6 nM.
With `CN(Cc1cnc2nc(N)nc(N)c2n1)c1ccc(C(=O)N[C@@H](CCC(=O)O)C(=O)O)cc1` [METHOTREXATE] the IC50 [2] was 8 nM.
In the case of `Cc1nc(N)nc(N)c1-c1cccc2ccccc12`, the Ki [3] is reported as 56000 nM.
In the case of `Cc1nc(N)nc(N)c1NC(=O)C12CC3CC(CC(C3)C1)C2`, the Ki [4] is reported as 9 nM.
Molecule `Cc1nc(N)nc(N)c1-c1ccc2ccccc2c1` has an IC50 [2] of 70 nM.
With `CCc1nc(N)nc(N)c1C12CC3CC(CC(C3)C1)C2` the IC50 [1] was 0.25 nM.
